Converted amounts (≈) assume the structure as drawn.
Tests used:
Type in all cases: cell-based
[1] = system: colistin resistant MCR (+) E. Coli strains; assay: MIC, broth microdilution, compound alone; conditions: compound alone
Procedure: (§1) MIC experiments of the antimicrobial agents were determined by a modified broth microdilution method in accordance with the Clinical and Laboratory Standards Institute (CLSI) guidelines using 96 well culture plates. In brief, serial dilutions of all plates were prepared at different concentrations (μg). The inoculum suspension was prepared by adding isolated colonies from a 18-20 hours on TSA plate into phosphate buffer (0.31 mM, pH 7.2) or in water for injection (BBraun) and adjusting the suspension to a turbidity equivalent to 0.5 McFarland Standard. Each well contained a final bacterial concentration of approximately 5×10^5 colony forming units (CFU)/mL. The plate was covered and incubated at 35° C. for 24 hours. […] For the microdilution plates, turbidity in wells can be measured at OD600 using TECAN infinite M200Pro. MIC was determined as […] concentration that gives a 99 percent inhibition.

[2] = system: colistin resistant MCR (−) E. Cloacae strain 7023456439; assay: MIC, broth microdilution, compound alone; conditions: strain 7023456439 E. Cloacae
Procedure: as §1

[3] = system: colistin resistant MCR (−) E. Coli strains; assay: MIC, broth microdilution, compound alone
Procedure: as §1

[4] = system: colistin resistant MCR (−) E. Cloacae strain 7023456439; assay: Synergy study: colistin MIC in the presence of compound; conditions: strain 7023456439 E. Cloacae
Procedure: (§2) The MICs of the individual drugs and LC compound in combinations were determined using the broth microdilution technique as recommended by the CLSI whereby the two anti-microbial agents were added in an equal amount. (e.g.: 50 μL of Colistin: 50 μL of LC compounds). Diluted media containing compounds and antibiotics will be serially diluted 2-fold, and LC compounds and antibiotics alone or in combination will be assayed at fixed synergy concentration. In all cases, the lowest concentration at which no visible growth occurred was be recorded to be the MIC value of individual and combined antibacterial agents. The results were obtained after 24 hours of incubation.

[5] = system: colistin resistant MCR (−) E. Coli strains; assay: as above
Procedure: as §2

[6] = system: colistin resistant MCR (+) E. Coli strains; assay: as above
Procedure: as §2

[7] = compound at 5 μg (Table 2a: 5 ug/ml)
[8] = strain 6083672926, MCR(−), compound at 5 μg (Table 2a: 5 ug/ml)
[9] = strain 7023446108, MCR(−), compound at 5 μg (Table 2a: 5 ug/ml)
[10] = strain 7033607097, MCR(−), compound at 5 μg (Table 2a: 5 ug/ml)
[11] = strain 6075066346, MCR(+), compound at 5 μg (Table 2a: 5 ug/ml)
[12] = strain 6083655967, MCR(+), compound at 5 μg (Table 2a: 5 ug/ml)
[13] = strain 7103531927, MCR(+), compound at 5 μg
[14] = compound at 10 μg (Table 2a: 10 ug/ml)
[15] = strain 6083672926, MCR(−), compound at 10 μg (Table 2a: 10 ug/ml)
[16] = strain 7023446108, MCR(−), compound at 10 μg (Table 2a: 10 ug/ml)
[17] = strain 7033607097, MCR(−), compound at 10 μg (Table 2a: 10 ug/ml)

Structure (SMILES)	MIC ([1]; strain 6075066346, MCR (+)) [mg/L]	MIC ([1]; strain 6083655967, MCR (+)) [mg/L]	MIC ([1]; strain 6103645107, MCR (+)) [mg/L]	MIC ([1]; strain 6123520276, MCR (+)) [mg/L]	MIC ([1]; strain 7013177695, MCR (+)) [mg/L]	MIC ([1]; strain 7023436560, MCR (+)) [mg/L]	MIC ([1]; strain 7023444207, MCR (+)) [mg/L]	MIC [2] [mg/L]	MIC ([3]; strain 6083672926, MCR (−)) [mg/L]	MIC ([3]; strain 7023446108, MCR (−)) [mg/L]	MIC ([3]; strain 7033607097, MCR (−)) [mg/L]	Colistin MIC in the presence of the compound [4, 7] [mg/L]	Colistin MIC in the presence of the compound [5, 8] [mg/L]	Colistin MIC in the presence of the compound [5, 9] [mg/L]	Colistin MIC in the presence of the compound [5, 10] [mg/L]	MIC ([1]; strain 7103531927, MCR (+)) [mg/L]	Colistin MIC in the presence of the compound [4, 14] [mg/L]	Colistin MIC in the presence of the compound [5, 15] [mg/L]	Colistin MIC in the presence of the compound [5, 16] [mg/L]	Colistin MIC in the presence of the compound [5, 17] [mg/L]	further results
CC[N+](CC)(CC)CCCCOc1ccc(/C=C/C(=O)c2ccc(OCCCC[N+](CC)(CC)CC)c(CC=C(C)C)c2O)cc1 [LC315]	6.25	6.25	6.25	12.5	12.5	6.25	12.5	>50	25	12.5	12.5	>12.5	<0.0975	<0.0975	<0.0975						
CCN(CC)CCOc1ccc(/C=C/C(=O)c2ccc(OCCN(CC)CC)c(CC=C(C)C)c2O)cc1 [LC150]	>50	>50							50 (≈ 95.7 µM)	50 (≈ 95.7 µM)	50 (≈ 95.7 µM)		0.195	0.39	0.195	>50					Colistin MIC in the presence of the compound [6, 11]: 0.39 mg/L; Colistin MIC in the presence of the compound [6, 12]: 0.195 mg/L; Colistin MIC in the presence of the compound [6, 13]: 0.39 mg/L
COC(=O)C(CCCNC(=N)N)NC(=O)COc1ccc(C2COc3c(ccc4c3C=CC(C)(C)O4)C2)c(OCC(=O)NC(CCCNC(=N)N)C(=O)OC)c1 (stereo not drawn) [LC106]	>25	>25	>25	>25	>25	>25	>25	>25	>25	>25	>25						>25	12.5	6.25	6.25	
CC(C)=CCc1c(OCCCCN(CCCN(C)C)CCCN(C)C)ccc(C(=O)/C=C/c2ccc(OCCCCN(CCCN(C)C)CCCN(C)C)cc2)c1O [LC097]	25 (≈ 31 µM)	25 (≈ 31 µM)	12.5 (≈ 15.5 µM)	25 (≈ 31 µM)	12.5 (≈ 15.5 µM)	12.5 (≈ 15.5 µM)	25 (≈ 31 µM)	>25	25 (≈ 31 µM)	12.5 (≈ 15.5 µM)	12.5 (≈ 15.5 µM)	>12.5	0.195	0.195	0.195						
CC(C)=CCc1c(OCCCCN(C)CCCN(C)C)ccc(C(=O)/C=C/c2ccc(OCCCCN(C)CCCN(C)C)cc2)c1O [LC098]	6.25 (≈ 9.4 µM)	6.25 (≈ 9.4 µM)	6.25 (≈ 9.4 µM)	6.25 (≈ 9.4 µM)	6.25 (≈ 9.4 µM)	6.25 (≈ 9.4 µM)	6.25 (≈ 9.4 µM)	>25	12.5 (≈ 18.8 µM)	6.25 (≈ 9.4 µM)	6.25 (≈ 9.4 µM)	25	0.195	0.195	0.195						
CC[N+](CC)(CC)CCCCOc1ccc(C2COc3c(ccc4c3C=CC(C)(C)O4)C2)c(OCCCC[N+](CC)(CC)CC)c1 (stereo not drawn) [LC317]	50	50	50	>50	50	50	50	>50	>50	50	>50						>12.5	1.56	1.56	1.56	
CC(C)=CCc1c(OCC(=O)NC(CCCNC(=N)N)C(N)=O)ccc(C(=O)/C=C/c2ccc(OCC(=O)NC(CCCNC(=N)N)C(N)=O)cc2)c1O (stereo not drawn) [LC131]	>50	>50	>50	>50	>50	>50	>50	>50	>50	>50	>50						>12.5	12.5	6.25	6.25	
Cc1cc(OCCCCN(Cc2ccccn2)Cc2ccccn2)cc(OCCCCN(Cc2ccccn2)Cc2ccccn2)c1.[Cl][Zn][Cl].[Cl][Zn][Cl] [Orc-DPA-Zn]	50	50	>50	50	50	50	50	>50	50	50	50										Colistin MIC in the presence of the compound ([4]; compound at 50 ug/ml): <0.195 mg/L; Colistin MIC in the presence of the compound ([5]; strain 6083672926, MCR(−), compound at 50 ug/ml): <0.195 mg/L; Colistin MIC in the presence of the compound ([5]; strain 7023446108, MCR(−), compound at 50 ug/ml): <0.195 mg/L; Colistin MIC in the presence of the compound ([5]; strain 7033607097, MCR(−), compound at 50 ug/ml): <0.195 mg/L
CCN(CC)CCCOc1ccc(/C=C/C(=O)c2ccc(OCCCN(CC)CC)c(CC=C(C)C)c2O)cc1 [LC204]	>50	>50							>50	>50	>50		0.39	0.39	0.39	>50					Colistin MIC in the presence of the compound [6, 11]: 0.39 mg/L; Colistin MIC in the presence of the compound [6, 12]: 0.39 mg/L; Colistin MIC in the presence of the compound [6, 13]: 0.39 mg/L
CCOC(=O)C(CCCNC(=N)N)NC(=O)COc1ccc(/C=C/C(=O)c2ccc(OCC(=O)NC(CCCNC(=N)N)C(=O)OCC)c(CC=C(C)C)c2O)cc1 (stereo not drawn) [LC137]	12.5 (≈ 15.5 µM)	12.5 (≈ 15.5 µM)							12.5 (≈ 15.5 µM)	12.5 (≈ 15.5 µM)	12.5 (≈ 15.5 µM)		≤0.0975	≤0.0975	≤0.0975	12.5 (≈ 15.5 µM)					synergy with colistin ([6]; against mcr-1 bacteria, in words): excellent synergy; Colistin MIC in the presence of the compound ([6]; strain 6083655967, MCR(+), compound at 3 μg): 0.78 mg/L; Colistin MIC in the presence of the compound ([6]; strain 7103531927, MCR(+), compound at 3 μg): 0.39 mg/L; Colistin MIC in the presence of the compound ([5]; strain 6083672926, MCR(−), compound at 3 μg): 6.25 mg/L; Colistin MIC in the presence of the compound ([5]; strain 6083672926, MCR(−), compound at 4 μg): 0.195 mg/L; Colistin MIC in the presence of the compound ([5]; strain 7023446108, MCR(−), compound at 3 μg): 0.39 mg/L; Colistin MIC in the presence of the compound ([5]; strain 7023446108, MCR(−), compound at 4 μg): <0.0975 mg/L; Colistin MIC in the presence of the compound ([5]; strain 7033607097, MCR(−), compound at 3 μg): 0.195 mg/L; Colistin MIC in the presence of the compound ([5]; strain 7033607097, MCR(−), compound at 4 μg): <0.0975 mg/L
